In US20240050463A1, “THERAPEUTIC COMPOSITIONS AND METHODS FOR TREATING HEPATITIS B” (ARBUTUS BIOPHARMA CORPORATION, priority 2016, published 2024):
Structures can show the parent of a compound that is named as a salt. Where two headings read alike, the source gives them in different places.

Tests used:
[1] = system: HBV rcDNA in HepDE19 cells; experiment: Inhibition of rcDNA in HepDE19 cells (bDNA assay), checkerboard, MacSynergy II; format: cell-based, HBV (human hepatoma cell line); set-up: key to ADDITIVE INHIBITION: % inhibition of rcDNA production; details: Compound 3 0 μM
Protocol: In vitro combination studies were conducted using the method of Prichard and Shipman (Prichard M N, and Shipman C Jr., Antiviral Research, 1990, 14(4-5), 181-205; and Prichard M N, et. al., MacSynergy II). HepDE19 cell culture system is a HepG2 (human hepatocarcinoma) derived cell line that supports HBV DNA replication and cccDNA formation in a tetracycline (Tet)-regulated manner and produces HBV rcDNA and a detectable reporter molecule dependent on the production and maintenance of cccDNA (Guo et al 2007. J. Virol 81:12472-12484). HepDE19 (50,000 cells/well) were plated in 96 well collagen-coated tissue-culture treated microtiter plates in DMEM/F12 medium supplemented with 10% fetal bovine serum, 1% penicillin-streptomycin and 1 μg/ml tetracycline and incubated in a humidified incubator at 37° C. and 5% CO2 overnight. Next day, the cells were switched to fresh medium without tetracycline and incubated for 4 hrs at 37° C. and 5% CO2. […] The two inhibitors were tested both singly as well as in combinations in a checkerboard fashion such that each concentration of inhibitor A was combined with each concentration of inhibitor B to determine their combination effects on inhibition of rcDNA production. Following a 7 day-incubation of cells with compound combinations, the level of rcDNA present in the inhibitor-treated wells was measured using a Quantigene 2.0 bDNA assay kit (Affymetrix, Santa Clara, CA) with HBV specific custom probe set and manufacturers instructions. […] The RLU data from the single compound treated cells were analyzed using XL-Fit module in Microsoft Excel to determine EC50 values using a 4-parameter curve fitting algorithm. Concurrently, the effect of compounds on cell viability was assessed using replicate plates, plated at a density of 5,000 cells/well and incubated for 4 days, to determine the ATP content as a measure of cell viability using the cell-titer glo reagent (CTG; Promega Corporation, Madison, WI) as per manufacturer's instructions.
In vitro combination studies were conducted using the method of Prichard and Shipman (Prichard M N, Shipman C, Jr., Antiviral Res, 14, 181-205 (1990)). The HepDE19 cell line was developed as described in Guo et al. (Guo et al., J Virol, 81, 12472-12484 (2007)). It is a human hepatoma cell line stably transfected with the HBV genome, and which can express HBV pregenomic RNA and support HBV rcDNA (relaxed circular DNA) synthesis in a tetracycline-regulated manner. HepDE19 cells were plated in 96 well tissue-culture treated microtiter plates in DMEM/F12 medium supplemented with 10% fetal bovine serum+1% penicillin-streptomycin without tetracycline and incubated in a humidified incubator at 37° C. and 5% CO2 overnight. […] The two inhibitors were tested both singly as well as in combinations in a checkerboard fashion such that each concentration of inhibitor A was combined with each concentration of inhibitor B to determine their combination effects on inhibition of rcDNA production. Following a 48 hour-incubation, the level of rcDNA present in the inhibitor-treated wells was measured using a bDNA assay (Affymetrix) with HBV specific custom probe set and manufacturers instructions. […] Concurrently, the effect of inhibitor combinations on cell viability was assessed using replicate plates that were used to determine the ATP content as a measure of cell viability using the Cell-TiterGlo reagent (Promega) as per manufacturer's instructions.
In vitro combination studies were conducted using the method of Prichard and Shipman (1990) (Prichard M N, Shipman C, Jr. 1990. A three-dimensional model to analyze drug-drug interactions. Antiviral Res 14:181-205 AND Prichard M N. 1992. MacSynergy II, University of Michigan).

[2] = system: D type HBV in primary human hepatocytes (PHH); experiment: HBV DNA in culture supernatants of HBV-infected primary human hepatocytes (qPCR), MacSynergy; format: cell-based; details: for AVERAGE % INHIBITION: HBV DNA, COMPOUND 25 0.00 nM; for inhibition at 0.00012 µM / inhibition at 0.00037 µM / inhibition at 0.00333 µM / inhibition at 0.01 µM: Hepatitis B virus, Hepatocyte; for inhibition at 0.00012 µM: TDF 0.12 nM alone; for inhibition at 0.00037 µM: TDF 0.37 nM alone; for inhibition at 0.00333 µM: TDF 3.33 nM alone; for inhibition at 0.01 µM: TDF 10.00 nM alone
Protocol: (§1) The mouse liver perfusion was applied to isolate PHHs. The isolated hepatocytes were further purified by Percoll. The cells were resuspended with culture media and seeded into the 96-well plates (6×10^4 cell/well) or 48-well plates (1.2×10^5 cell/well). The PHHs were infected with a D type HBV one day post seeding (day 1).
(§2) On day 2, the test compounds were diluted and added into the cell culture plates. The culture media containing the compounds were refreshed every other day. The cell culture supernatants were collected on day 8 for the HBV DNA and antigen determinations.
(§3) The compounds were tested at 7 concentrations, 3-fold dilution, in triplicate.
(§4) Two compounds were tested at 5×5 matrix, in triplicate plates.
DNA in the culture supernatants harvested on days 8 were isolated with QIAamp 96 DNA Blood Kit (Qiagen-51161). For each sample, 100 μl of the culture supernatants was used to extract DNA. The DNA was eluted with 100 μl, 150 μl or 180 μl of AE. HBV DNA in the culture supernatants was quantified by qPCR. The combination effect was analyzed by the MacSynergy software. The primers are described below.

[3] = system: HBeAg, D type HBV in primary human hepatocytes (PHH); experiment: microbe, parasite or virus in culture; format: cell-based; details: Hepatitis B virus, Hepatocyte, read-out: Inhibitor B EC50, HBeAg endpoint; determined in an earlier separate experiment
Protocol: as §1, §2, §3, §4
(§5) HBsAg/HBeAg in the culture supernatants harvested on days 8 were measured by the HBsAg/HBeAg ELISA kit (Autobio) according to the manual. The samples were diluted with PBS to get the signal in the range of the standard curve. The inhibition rates were calculated with the formula below. The combination effect was analyzed by the MacSynergy software.
% Inh. HBeAg=[1−HBeAg quantity of sample/HBV quantity of DMSO control]×100.

[4] = system: HBsAg, D type HBV in primary human hepatocytes (PHH); experiment: microbe, parasite or virus in culture; format: cell-based; details: Hepatitis B virus, Hepatocyte; for inhibition at 0.00012 µM: TDF 0.12 nM alone; for inhibition at 0.00037 µM: TDF 0.37 nM alone
Protocol: as §1, §2, §3, §4, §5
% Inh. HBsAg=[1−HBsAg quantity of sample/HBV quantity of DMSO control]×100.

[5] = system: HBsAg secretion in HepG2.2.15 cells; experiment: Inhibition of HBsAg in HepG2.2.15 cells (CLIA), checkerboard, MacSynergy II; format: cell-based, HBV (human hepatoblastoma HepG2 cells); details: for Additive % Inhibition (HBsAg) versus negative control: Trial 3
Protocol: In vitro combination studies were conducted using the method of Prichard and Shipman (Prichard M N, and Shipman C Jr., Antiviral Research, 1990, 14(4-5), 181-205; and Prichard M N, et. al., MacSynergy II). The HepG2.2.15 cell culture system is a cell line derived from human hepatoblastoma HepG2 cells that have been stably transfected with the adw2− subtype HBV genome as previously explained in Sells et al. (Proc. Natl. Acad. Sci. U. S. A, 1987. Vol 84:1005-1009). HepG2.2.15 cells secrete Dane-like viral particles, produce HBV DNA, and also produce the viral proteins, hepatitis B e antigen (HBeAg) and hepatitis B surface antigen (HBsAg).
To test the compound combinations, HepG2.2.15 (30,000 cells/well) were plated in 96 well tissue-culture treated microtiter plates in RPMI+L-Glutamine medium supplemented with 1% penicillin-streptomycin, 20 μg/mL geneticin (G418), 10% fetal bovine serum, and incubated in a humidified incubator at 37° C. and 5% CO2 overnight. […] […] The microtiter cell plates were incubated for a duration of 6 days in a humidified incubator at 37° C. and 5% CO2.
Untreated positive control samples (0.5% DMSO in media) were included on each plate in multiple wells. Following a 6 day-incubation, media was removed from treated cells for use in an HBsAg chemiluminescence immunoassay (CLIA) (Autobio Diagnostics, Cat No. CL0310-2). An HBsAg standard curve was generated to verify that the levels of HBsAg quantification were within the detection limits of the assay. The remaining inhibitor-treated cells were assessed for cytotoxicity by determination of the intracellular adenosine triphosphate (ATP) using a Cell-Titer Glo reagent (Promega) as per manufacturers instructions and by microscopic analysis of the cells throughout the duration of inhibitor treatment. Cell viability was calculated as a percentage of the untreated positive control wells.
The plates were read using an EnVision multimode plate reader (PerkinElmer Model 2104). […] The RLU data from the single compound treated cells were analyzed using XL-Fit module in Microsoft Excel to determine EC50 values using a 4-parameter curve fitting algorithm.

[6] = read-out: Additive inhibition, HBV DNA
[7] = read-out: Average % inhibition, HBV DNA
[8] = read-out: Additive inhibition, HBsAg
[9] = read-out: Average % inhibition, HBsAg

## CCOC(=O)C1=C(CN2CCOCC2)NC(c2nccs2)=NC1c1ccc(F)cc1Br (stereo not drawn) [GLS4]
[1]; GLS-4 0.007813 μM
  ADDITIVE INHIBITION: −1.17
[1]; GLS-4 0.01563 μM
  ADDITIVE INHIBITION: −5.82
[1]; GLS-4 0.03125 μM
  ADDITIVE INHIBITION: 7.03
[1]; GLS-4 0.0625 μM
  ADDITIVE INHIBITION: 38.95
[1]; GLS-4 0.125 μM
  ADDITIVE INHIBITION: 77.82
[1]; GLS-4 0.25 μM
  ADDITIVE INHIBITION: 94.65
[1]; GLS-4 0.5 μM
  ADDITIVE INHIBITION: 97.48
[1]; GLS-4 1 μM
  ADDITIVE INHIBITION: 98.51
[1]; GLS-4 2 μM
  ADDITIVE INHIBITION: 98.22

## O=C(Nc1ccc(F)c(F)c1)c1cc(S(=O)(=O)NC2CCCC2)ccc1F [Compound 22]
[2]; COMPOUND 22 61.73 nM
  AVERAGE % INHIBITION: −11.75%
[2]; COMPOUND 22 185.19 nM
  AVERAGE % INHIBITION: −9.12%
[2]; COMPOUND 22 555.56 nM
  AVERAGE % INHIBITION: −12.7%
[2]; COMPOUND 22 1666.67 nM
  AVERAGE % INHIBITION: 17.94%
[2]; COMPOUND 22 5000.00 nM
  AVERAGE % INHIBITION: 63.06%

## CNC(=O)N[C@H]1CCOc2c(C(=O)Nc3ccc(F)c(F)c3)ccc(F)c21 [Compound 23]
[3]
  EC50: 4.53 nM
[4]; read-out: Inhibitor B EC50
  EC50: 4.36 nM

## COCCCOc1cc2c(cc1OC)-c1cc(=O)c(C(=O)O)cn1[C@H](C(C)C)C2 [Compound 5]
[5]; Compound 5 0.0001 μM alone
  Additive % Inhibition (HBsAg) versus negative control: 69.99%
[5]; Compound 5 0.000316 μM alone
  Additive % Inhibition (HBsAg) versus negative control: 82.39%
[5]; Compound 5 0.001 μM alone
  Additive % Inhibition (HBsAg) versus negative control: 89.01%
[5]; Compound 5 0.00316 μM alone
  Additive % Inhibition (HBsAg) versus negative control: 90.26%
[5]; Compound 5 0.1 μM alone
  Additive % Inhibition (HBsAg) versus negative control: 86.26%
[5]; Compound 5 1.0E−05 μM alone
  Additive % Inhibition (HBsAg) versus negative control: 46.36%
[5]; Compound 5 1.00E−06 μM alone
  Additive % Inhibition (HBsAg) versus negative control: 22.68%
[5]; Compound 5 3.16E−06 μM alone
  Additive % Inhibition (HBsAg) versus negative control: 34.18%
[5]; Compound 5 3.17E−05 μM alone
  Additive % Inhibition (HBsAg) versus negative control: 56.34%
[5]; Hepatitis B virus, HepG2.2.15, Trial 2, HBsAg by CLIA, read-out: Compound 5 EC50
  EC50: 5 nM

## CC(C)OC(=O)OCOP(=O)(CO[C@H](C)Cn1cnc2c(N)ncnc21)OCOC(=O)OC(C)C [TDF, tenofovir disoproxil fumarate]
[2]; [6]
  inhibition at 0.00012 µM: -1.16%
  inhibition at 0.00037 µM: -6.24%
  inhibition at 0.00333 µM: 3.15%
  inhibition at 0.01 µM: -15.4%
[2]; [7]
  inhibition at 0.00012 µM: -1.16%
  inhibition at 0.00037 µM: -6.24%
  inhibition at 0.00333 µM: 3.15%
  inhibition at 0.01 µM: -15.4%
[4]; [8]
  inhibition at 0.00012 µM: -3.31%
  inhibition at 0.00037 µM: -3.32%
[4]; [9]
  inhibition at 0.00012 µM: -3.31%
  inhibition at 0.00037 µM: -3.32%
[4]; read-out: Additive inhibition, HBsAg, TDF 3.33 nM alone
  inhibition at 0.00333 µM: -1.28%
[4]; read-out: Additive inhibition, HBsAg, TDF 10.00 nM alone
  inhibition at 0.01 µM: -6.65%
[4]; read-out: Average % inhibition, HBsAg, TDF 3.33 nM alone
  inhibition at 0.00333 µM: -1.28%
[4]; read-out: Average % inhibition, HBsAg, TDF 10.00 nM alone
  inhibition at 0.01 µM: -6.65%
